Values of other authors as cited in US20230129072A1, “SYSTEM, PRODUCT AND METHOD FOR MAINTAINING THE VAGINAL MICROBIOME” (VAGINAL BIOME SCIENCE, INC., priority 2021, published 2023).

Experiments:
[1] = system: herpes simplex virus (HSV-2); details: after a single exposure

CC(O)CO (stereo not drawn) [propylene glycol]
susceptibility to herpes simplex virus (HSV-2) [1]: markedly increased susceptibility

nonoxynol-9 [Example N9]
toxicity to beneficial Lactobacilli spp. (Lactobacilli spp.): toxic

polyethylene glycol (PEG-8)
susceptibility to herpes simplex virus (HSV-2) [1]: markedly increased susceptibility
